Results reported in patent US20200399262A1, “COMPOUNDS FOR INHIBITING PROTEIN DEGRADATION AND METHODS OF USE THEREOF IN THE TREATMENT OF CANCER” (PI Therapeutics Ltd, priority 2018, published 2020).

Experiments:
Experiment in all cases: Cell viability panel, ATPlite 1Step
Assay type in all cases: cell-based
LS411N = settings: Homo sapiens, LS-411N, Cecum adenocarcinoma, 72 h exposure, read-out: Compound EC50
Experimental: (§1) Cell viability panel studies. Cells were diluted in the corresponding ATCC recommended medium and dispensed in a 384-well plate, depending on the cell line used, at a density of 200-6400 cells per well. For each used cell line, the optimal cell density was used. Compound was serially diluted and 8 concentration (0.04-32 μM) were added to the cells for 72 h exposure. At t=end, of ATPlite 1Step™ (PerkinElmer) were used to calculate cell viability. Cell lines marked with asterisk were seeded 24 h prior to treatment in 96-well plates at the density range of 5,000-40,000 cells/well, according to duplication rate, in RPMI 1640 medium containing 10% fetal bovine serum and 2 mM L-glutamine. Compounds were diluted from 10 mM DMSO stock and treatment was applied at the range of 0.04-1 μM. Following incubation at 37° C. for 48 hours with increasing concentrations of the compounds, viability was determined with CyQUANT® Direct Assay Kit (Invitrogen). Output intensities were normalized to values after treatment with DMSO alone, and EC50 values were calculated using the absorbance measurements [time zero, (Tz), growth control, (C), plus the test growth at the four drug concentration levels (Ti)] as follows: [(Ti−Tz)/(C−Tz)]×100 for concentrations for which Ti>/=Tz; [(Ti−Tz)/Tz]×100 for concentrations for which Ti−<Tz.

A-549 = settings: Homo sapiens, A549, Lung adenocarcinoma, 72 h exposure, read-out: Compound EC50
Experimental: as §1

Daoy = settings: Homo sapiens, Medulloblastoma, 72 h exposure, read-out: Compound EC50
Experimental: as §1

KU812 = settings: Homo sapiens, Chronic myelogenous leukemia, 72 h exposure, read-out: Compound EC50
Experimental: as §1

HCT-15 = settings: Homo sapiens, Colon adenocarcinoma, 72 h exposure, read-out: Compound EC50
Experimental: as §1

A-498 = settings: Homo sapiens, A498, Renal cell carcinoma, 72 h exposure, read-out: Compound EC50
Experimental: as §1

DLD-1 = settings: Homo sapiens, Colon adenocarcinoma, 72 h exposure, read-out: Compound EC50
Experimental: as §1

DB = settings: Homo sapiens, Diffuse large B-cell lymphoma, 72 h exposure, read-out: Compound EC50
Experimental: as §1

U-2 OS = settings: Homo sapiens, U2OS, Osteosarcoma, 72 h exposure, read-out: Compound EC50
Experimental: as §1

CCF-STTG1 = settings: Homo sapiens, Astrocytoma, 72 h exposure, read-out: Compound EC50
Experimental: as §1

K-562 = settings: Homo sapiens, K562, Chronic myelogenous leukemia, 72 h exposure, read-out: Compound EC50
Experimental: as §1

SU-DHL-1 = settings: Homo sapiens, Anaplastic large cell lymphoma, 72 h exposure, read-out: Compound EC50
Experimental: as §1

ACHN = settings: Homo sapiens, Papillary renal cell carcinoma, 72 h exposure, read-out: Compound EC50
Experimental: as §1

LoVo = settings: Homo sapiens, Colon adenocarcinoma, 72 h exposure, read-out: Compound EC50
Experimental: as §1

G-361 = settings: Homo sapiens, Melanoma, 72 h exposure, read-out: Compound EC50
Experimental: as §1

Hs 578T = settings: Homo sapiens, Invasive ductal carcinoma, 72 h exposure, read-out: Compound EC50
Experimental: as §1

MG-63 = settings: Homo sapiens, Osteosarcoma, 72 h exposure, read-out: Compound EC50
Experimental: as §1

LS 174T = settings: Homo sapiens, LS174T, Colon adenocarcinoma, 72 h exposure, read-out: Compound EC50
Experimental: as §1

KLE = settings: Homo sapiens, Endometrial adenocarcinoma, 72 h exposure, read-out: Compound EC50
Experimental: as §1

A-704 = settings: Homo sapiens, A704, Renal cell carcinoma, 72 h exposure, read-out: Compound EC50
Experimental: as §1

MIA PaCa-2 = settings: Homo sapiens, Pancreatic ductal adenocarcinoma, 72 h exposure, read-out: Compound EC50
Experimental: as §1

NCI-H82 = settings: Homo sapiens, Small cell lung carcinoma, 72 h exposure, read-out: Compound EC50
Experimental: as §1

SW48 = settings: Homo sapiens, Colon adenocarcinoma, 72 h exposure, read-out: Compound EC50
Experimental: as §1

CAL 27 = settings: Homo sapiens, Tongue squamous cell carcinoma, 72 h exposure, read-out: Compound EC50
Experimental: as §1

SR = settings: Homo sapiens, Anaplastic large cell lymphoma, 72 h exposure, read-out: Compound EC50
Experimental: as §1

AU-565 = settings: Homo sapiens, AU565, Breast adenocarcinoma, 72 h exposure, read-out: Compound EC50
Experimental: as §1

SHP-77 = settings: Homo sapiens, SHP77, Small cell lung carcinoma, 72 h exposure, read-out: Compound EC50
Experimental: as §1

RD = settings: Homo sapiens, Embryonal rhabdomyosarcoma, 72 h exposure, read-out: Compound EC50
Experimental: as §1

AsPC-1 = settings: Homo sapiens, ASPC1, Pancreatic ductal adenocarcinoma, 72 h exposure, read-out: Compound EC50
Experimental: as §1

Structure (SMILES): CN(C)CCCS(=O)(=O)N1C/C(=C\c2ccc(C#N)cc2)C(=O)/C(=C/c2ccc(C#N)cc2)C1 [Compound AA]
- EC50 (LS411N): 0.3 to 1 µM
- EC50 (A-549): ≥ 1 µM
- EC50 (Daoy): < 0.3 µM
- EC50 (KU812): < 0.3 µM
- EC50 (HCT-15): 0.3 to 1 µM
- EC50 (A-498): 0.3 to 1 µM
- EC50 (DLD-1): < 0.3 µM
- EC50 (DB): < 0.3 µM
- EC50 (U-2 OS): < 0.3 µM
- EC50 (CCF-STTG1): < 0.3 µM
- EC50 (K-562): < 0.3 µM
- EC50 (SU-DHL-1): < 0.3 µM
- EC50 (ACHN): 0.3 to 1 µM
- EC50 (LoVo): < 0.3 µM
- EC50 (G-361): < 0.3 µM
- EC50 (Hs 578T): < 0.3 µM
- EC50 (MG-63): < 0.3 µM
- EC50 (LS 174T): < 0.3 µM
- EC50 (KLE): ≥ 1 µM
- EC50 (A-704): 0.3 to 1 µM
- EC50 (MIA PaCa-2): 0.3 to 1 µM
- EC50 (NCI-H82): < 0.3 µM
- EC50 (SW48): 0.3 to 1 µM
- EC50 (CAL 27): < 0.3 µM
- EC50 (SR): < 0.3 µM
- EC50 (AU-565): < 0.3 µM
- EC50 (SHP-77): 0.3 to 1 µM
- EC50 (RD): < 0.3 µM
- EC50 (AsPC-1): 0.3 to 1 µM
